Experimental data taken from paper PMC6905855, “Agonist-specific voltage-dependent gating of lysosomal two-pore Na^+ channels” (eLife, 2019).
Where “and” joins values, the source holds several entries; their conditions need not be identical. Equal values may be shown once. Read-outs that look alike come from different tables or passages of the source.

How the values were obtained:
hTPC2 = molecular target: T1, hTPC2 (Homo sapiens, UniProt Q8NHX9); test: Whole-endolysosome recordings of ITPC2; format: biochemical; set-up: Whole endo-lysosomal TPC2 current activated by LyNa-VAs, Test 3 / Whole endo-lysosomal TPC2 current activated by LyNa-VAs, mean: unit not given here; conditions: for Whole endo-lysosomal TPC2 current activated by LyNa-VAs, Test 1 / Whole endo-lysosomal TPC2 current activated by LyNa-VAs, Test 2 / Whole endo-lysosomal TPC2 current activated by LyNa-VAs, Test 3 / Whole endo-lysosomal TPC2 current activated by LyNa-VAs, mean: 100uM; for Whole endo-lysosomal TPC2 current activated by LyNa-VAs, Test 1 / Whole endo-lysosomal TPC2 current activated by LyNa-VAs, Test 2 / Whole endo-lysosomal TPC2 current activated by LyNa-VAs, Test 3: individual recording; for Whole endo-lysosomal TPC2 current activated by LyNa-VAs, mean: mean of n tests; for ITPC2: whole endolysosome recordings with 100 µM of LyNa-VAs at −120 mV
T1 construct: expressed in transfected cells; host or cells: Cos1 and HEK293
T1 sequence (Q8NHX9 whole entry): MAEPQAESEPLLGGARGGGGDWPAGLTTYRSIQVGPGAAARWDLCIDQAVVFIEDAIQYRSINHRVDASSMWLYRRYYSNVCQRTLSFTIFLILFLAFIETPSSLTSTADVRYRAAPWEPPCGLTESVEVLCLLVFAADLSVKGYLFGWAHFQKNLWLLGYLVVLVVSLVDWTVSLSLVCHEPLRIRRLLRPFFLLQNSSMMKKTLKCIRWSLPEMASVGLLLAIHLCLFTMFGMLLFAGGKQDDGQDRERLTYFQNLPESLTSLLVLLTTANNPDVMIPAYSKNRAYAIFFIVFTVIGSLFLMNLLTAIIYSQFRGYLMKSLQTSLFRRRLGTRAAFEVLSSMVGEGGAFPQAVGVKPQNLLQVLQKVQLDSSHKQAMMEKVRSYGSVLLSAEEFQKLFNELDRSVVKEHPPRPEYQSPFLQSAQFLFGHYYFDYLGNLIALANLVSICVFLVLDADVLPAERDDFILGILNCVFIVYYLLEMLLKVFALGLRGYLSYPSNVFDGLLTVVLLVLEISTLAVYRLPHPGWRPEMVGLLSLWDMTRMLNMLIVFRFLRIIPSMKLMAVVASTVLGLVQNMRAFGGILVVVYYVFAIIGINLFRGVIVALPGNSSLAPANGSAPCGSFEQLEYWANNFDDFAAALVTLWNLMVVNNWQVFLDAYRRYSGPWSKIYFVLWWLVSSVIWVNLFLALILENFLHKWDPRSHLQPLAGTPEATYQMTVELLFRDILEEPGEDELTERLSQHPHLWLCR

[1] = molecular target: T2, surface-expressing mutant TPC2 channel (TPC2^LL/AA) in HEK293 cells (Homo sapiens, UniProt Q8NHX9, L11A/L12A); test: Whole-cell recordings of ITPC2-LL/AA; format: cell-based; conditions: for activation of whole-cell ITPC2-LL/AA (in words): bath application, symmetric Na^+, 100 µM where stated; for current density: whole cell recordings, individual recordings; for EC50: whole-cell recordings at −140 mV, TPC2^LL/AA-transfected HEK293 cells
T2 construct: expressed in transfected cells; host or cells: HEK293
T2 sequence (Q8NHX9 whole entry L11A/L12A): as the sequence (Q8NHX9 whole entry) above, with L11A, L12A counted along it
From the text: We therefore characterized the responses of TPC2 channels to TCAs in detail using electrophysiological methods. We first performed whole-cell recordings in HEK293 cells that were transfected with surface-expressed TPC2 mutant channels (TPC2-L^11L^12-AA; abbreviated as TPC2^LL/AA hereafter).
All TPC1 and TPC2 mutants were generated with a site-directed mutagenesis kit (Qiagen) using EGFP- human TPC1 and TPC2 as the templates. All constructs were confirmed by DNA sequencing.
Cells were transfected with Lipofectamine 2000 (Invitrogen). After culture media were refreshed 18–24 hr post-transfection, cells were used for the electrophysiological assays 24–36 hr post-transfection.
All bath solutions were applied via a perfusion system that allowed complete solution exchange within a few seconds. […] Whole-cell currents were digitized at 10 kHz and filtered at 2 kHz.

| ITPC2 (hTPC2) | activation of whole-cell ITPC2-LL/AA (in words) [1] | activation of whole-cell ITPC2-LL/AA (in words) ([1]; listed as carbamazepine) | EC50 ([1]; read-out: EC50) [µM] | Structure (SMILES) | Whole endo-lysosomal TPC2 current activated by LyNa-VAs, Test 1 (hTPC2) | Whole endo-lysosomal TPC2 current activated by LyNa-VAs, Test 2 (hTPC2) | Whole endo-lysosomal TPC2 current activated by LyNa-VAs, Test 3 (hTPC2) | Whole endo-lysosomal TPC2 current activated by LyNa-VAs, mean (hTPC2) | current density ([1]; 10 µM) | current density ([1]; 20 µM) | current density ([1]; 50 µM) | current density ([1]; 100 µM) | current density ([1]; 200 µM) | EC50 [1] | current density ([1]; 5 µM) | current density ([1]; 400 µM) |
| --- | --- | --- | --- | --- | --- | --- | --- | --- | --- | --- | --- | --- | --- | --- | --- | --- |
| 984 ± 294 pA | – | – | 63 ± 2 | CN(C)CCCN1c2ccccc2Sc2ccc(C(F)(F)F)cc21 [LyNa-VA2.2, Triflupromazine] | – | – | – | – | 5.827 pA/pF and 3.645 pA/pF and 3 pA/pF | 9.373 pA/pF and 9.136 pA/pF and 3.482 pA/pF | 33.1545 pA/pF and 26.4182 pA/pF and 44.2909 pA/pF | 125.791 pA/pF and 49.7455 pA/pF and 115.618 pA/pF | 155.109 pA/pF and 66.0091 pA/pF and 133.127 pA/pF | – | – | – |
| 876 ± 196 pA | ITPC2 was evoked | – | 102 ± 3 | CN(C)CCC=C1c2ccccc2CCc2ccccc21 [LyNa-VA1.4, Amitriptyline] | – | – | – | – | 7.736 pA/pF and 9.045 pA/pF and 6.655 pA/pF and 9.464 pA/pF | 11.0727 pA/pF and 11.9545 pA/pF and 11.2909 pA/pF and 11.6545 pA/pF | 26.9364 pA/pF and 36.5091 pA/pF and 23.5818 pA/pF and 26.8545 pA/pF | 95.0727 pA/pF and 115.527 pA/pF and 80.9273 pA/pF and 83.2 pA/pF | 156.364 pA/pF and 155.436 pA/pF and 160.382 pA/pF and 158.109 pA/pF | – | 12.4 pA/pF | 179.973 pA/pF |
| 433 ± 94 pA | – | – | 112 ± 1 | CN(C)CCCN1c2ccccc2CCc2ccccc21 [LyNa-VA1.3, Imipramine] | – | – | – | – | 4.664 pA/pF and 36.5364 pA/pF and 8.182 pA/pF | 6.518 pA/pF and 56.7909 pA/pF and 7.655 pA/pF | 14.1182 pA/pF and 126.618 pA/pF and 15.6182 pA/pF | 42.3 pA/pF and 158.945 pA/pF and 32.4364 pA/pF | 99.9 pA/pF and 167.955 pA/pF and 41.0364 pA/pF | – | – | 103.264 pA/pF |

Continued, molecule first:

| Structure (SMILES) | ITPC2 (hTPC2) | activation of whole-cell ITPC2-LL/AA (in words) [1] | activation of whole-cell ITPC2-LL/AA (in words) ([1]; listed as carbamazepine) | EC50 ([1]; read-out: EC50) [µM] | Whole endo-lysosomal TPC2 current activated by LyNa-VAs, Test 1 (hTPC2) | Whole endo-lysosomal TPC2 current activated by LyNa-VAs, Test 2 (hTPC2) | Whole endo-lysosomal TPC2 current activated by LyNa-VAs, Test 3 (hTPC2) | Whole endo-lysosomal TPC2 current activated by LyNa-VAs, mean (hTPC2) | current density ([1]; 10 µM) | current density ([1]; 20 µM) | current density ([1]; 50 µM) | current density ([1]; 100 µM) | current density ([1]; 200 µM) | EC50 [1] | current density ([1]; 5 µM) | current density ([1]; 400 µM) |
| --- | --- | --- | --- | --- | --- | --- | --- | --- | --- | --- | --- | --- | --- | --- | --- | --- |
| c1ccc2c(c1)Nc1ccccc1S2 [Phenothiazine] | No activation | no significant activation | – | – | 10.3 | -2.6 | 4.8 | 4.2 | 10.2273 pA/pF and 10.0273 pA/pF and 9.7 pA/pF | 11.0091 pA/pF and 7.509 pA/pF and 8.936 pA/pF | 10.7545 pA/pF and 9.7 pA/pF and 10.2182 pA/pF | 9.9 pA/pF and 8.064 pA/pF and 9.882 pA/pF | 10.0545 pA/pF and 9.218 pA/pF and 9.555 pA/pF | No activation | – | – |
| NC(=O)N1c2ccccc2C=Cc2ccccc21 [Carbamazepine] | No activation | no significant activation | not by carbamazepine | – | -17 | 9.3 | 23.1 | 5.1 | 8.227 pA/pF and 9.227 pA/pF and 5.436 pA/pF | 8.573 pA/pF and 9.164 pA/pF and 6.418 pA/pF | 8.8 pA/pF and 8.755 pA/pF and 6.073 pA/pF | 7.691 pA/pF and 8.973 pA/pF and 5.518 pA/pF | 7.464 pA/pF and 9.855 pA/pF and 6.164 pA/pF | No activation | 8.018 pA/pF and 9.073 pA/pF and 6.645 pA/pF | 8.109 pA/pF and 8.755 pA/pF and 7.1 pA/pF |
| CNCCC=C1c2ccccc2CCc2ccccc21 [LyNa-VA1.5, Nortriptyline] | 1916 ± 361 pA | – | – | 52 ± 10 | – | – | – | – | 7.1 pA/pF and 35.8727 pA/pF and 7.336 pA/pF and 16.5636 pA/pF | 6.773 pA/pF and 73.7727 pA/pF and 24.3182 pA/pF | 14.0091 pA/pF and 121.209 pA/pF and 89.9 pA/pF | 57.6545 pA/pF and 164.355 pA/pF and 160.345 pA/pF and 75.7909 pA/pF | 154.282 pA/pF and 191.036 pA/pF and 204.236 pA/pF and 114.582 pA/pF | – | – | 180.164 pA/pF |
